Laboratory results taken from patent US6586630B1, “Ethylamine derivatives” (Chugai Seiyaku Kabushiki Kaisha, priority 1998, dated 2003).

What was measured:
[1] = system: motilin-induced contraction of longitudinal muscle in the duodenum; test: Contraction suppressing test: motilin-induced contraction of a specimen of longitudinal muscle in the duodenum extracted from a rabbit; format: cell-based; details: rabbit duodenum longitudinal muscle in organ bath, Krebs solution 28° C.; effect on dose-dependent contraction by motilin
Protocol: Action on the Contraction of a Specimen of Longitudinal Muscle in the Duodenum Extracted from a Rabbit
The action on the motilin-induced contraction of a specimen of longitudinal muscle in the duodenum extracted from a rabbit was investigated by the following method. A duodenum specimen extracted from a slaughtered rabbit (5×15 mm) was suspended in an organ bath (10 ml) such that the longitudinal muscle would run vertically; the bath was filled with a Krebs solution kept at 28° C. A mixed gas (95% O2 and 5% CO2) was continuously bubbled into the Krebs solution and the contraction of the duodenum specimen was recorded isotonically (with a 1-g load) via an isotonic transducer (ME-3407, ME Commercial, Tokyo, Japan). The degree of contraction was expressed in relative values, with the contraction by acetylcholine at a dose of 10^−4 M being taken as 100%. The activity of the compound was calculated as pA2 value indicating its effect on the dose-dependent muscle contraction by the motilin put into the organ bath.

Motilin receptor = target: T1, Motilin receptor (Oryctolagus cuniculus, UniProt G1T803); test: Motilin receptor binding test (125I motilin, rabbit duodenum protein sample); details: 125I motilin 25 pM, concentration reducing specific binding by 50%
T1 construct: had the mucous membrane separated and homogenized in 50 mM Tris buffer to prepare a protein sample; from tissue; host or cells: rabbit duodenum with the mucous membrane separated, homogenate
Protocol: Motilin Receptor Binding Test
A motilin receptor binding test was conducted in the following manner [Vantrappen et al., Regul. Peptides, 15, 143 (1986)]. The duodenum was extracted from a slaughtered rabbit, had the mucous membrane separated and homogenized in 50 mM Tris buffer to prepare a protein sample. The protein sample was incubated together with ^125I motilin 25 pM and thereafter the radioactivity bound to the protein was measured. Specific binding was defined as the difference between the radioactivity in the case of no adding and that in the case of adding a great excess amount of motilin (10^−7 M). The activity of the compound was expressed by IC50 (in nM), as the concentration sufficient to reduce the specific binding by 50%.

T1 sequence (G1T803 1-400): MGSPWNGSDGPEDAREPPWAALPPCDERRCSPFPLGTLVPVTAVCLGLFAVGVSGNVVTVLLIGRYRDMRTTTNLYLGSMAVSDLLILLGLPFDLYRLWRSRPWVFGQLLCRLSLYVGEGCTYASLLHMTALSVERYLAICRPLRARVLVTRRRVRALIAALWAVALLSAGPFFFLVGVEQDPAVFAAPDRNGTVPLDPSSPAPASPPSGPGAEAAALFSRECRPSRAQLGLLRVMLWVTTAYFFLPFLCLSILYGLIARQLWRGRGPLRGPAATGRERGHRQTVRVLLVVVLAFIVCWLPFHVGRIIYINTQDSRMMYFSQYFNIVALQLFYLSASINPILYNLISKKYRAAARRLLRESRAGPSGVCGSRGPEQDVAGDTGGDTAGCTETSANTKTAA

In the case of CC(C)[C@@H](C(=O)NC(Cc1ccc(F)c(C(C)(C)C)c1)C(N)=O)N(C)C(=O)[C@@H](N)Cc1ccccc1 (single isomer, unassigned) [7 (A), Phe-N-Me-Val-Phe(3-tBu-4-F)—NH2], the “Contraction suppressing test, pA2” value [1] is reported as 7.58 and the IC50 (Motilin receptor) is reported as 3.5 nM.
